Assay results reported in patent US7452717B2, “Compositions and methods for sensitizing and inhibiting growth of human tumor cells” (St. Jude Children's Research Hospital, priority 1998, dated 2008).
“Also recorded” adds a separate entry of the source. Read-outs that look alike come from different tables or passages of the source.

Columns and labels:
rabbit liver CE [1] = biological target: T1, rabbit liver CE (Oryctolagus cuniculus, UniProt P12337); assay type: biochemical; parameters: To amplify a full length rabbit CE cDNA, oligonucleotide primers RabNTERM; expressed in transfected cells; details: in vitro, rabbit CE (FIG. 6)
T1 sequence (P12337 19-565): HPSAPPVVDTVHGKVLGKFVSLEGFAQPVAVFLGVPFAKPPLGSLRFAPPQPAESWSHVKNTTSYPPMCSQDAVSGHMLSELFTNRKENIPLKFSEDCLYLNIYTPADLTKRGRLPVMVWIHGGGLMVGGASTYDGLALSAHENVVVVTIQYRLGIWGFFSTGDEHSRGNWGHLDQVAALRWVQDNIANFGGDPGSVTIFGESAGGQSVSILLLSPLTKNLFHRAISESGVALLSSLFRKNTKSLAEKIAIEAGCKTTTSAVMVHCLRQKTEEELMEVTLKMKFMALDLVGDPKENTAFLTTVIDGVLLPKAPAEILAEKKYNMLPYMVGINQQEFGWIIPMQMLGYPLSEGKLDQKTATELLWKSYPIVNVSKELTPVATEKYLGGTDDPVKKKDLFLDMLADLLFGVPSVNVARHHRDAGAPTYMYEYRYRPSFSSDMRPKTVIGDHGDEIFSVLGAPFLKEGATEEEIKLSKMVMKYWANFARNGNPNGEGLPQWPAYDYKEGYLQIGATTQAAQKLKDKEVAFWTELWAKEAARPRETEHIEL
Source text: FIG. 6 is a linegraph showing the conversion of APC, depicted on the X-axis at nanomolar concentrations, to SN-38, depicted on the Y-axis at nanomolar concentrations, in vitro by the activity of rabbit liver CE given at doses of 0 (filled cross), 10 (filled hexagon), 25 (filled triangle), 50 (filled circle) or 100 (filled square) units. Data presented represent the mean response at each dose level.
(§1) No known human enzyme activates APC. […] Thus, the combination of APC and sensitization of selected tumor cells with rabbit liver CE as described above can be used to produce a tumor-specific cell death while greatly minimizing the toxic side effects associated with administration of chemotherapy.

[2] = test system: U-373 glioma cells expressing rabbit liver CE; assay: Growth inhibition by APC, U-373 glioma cells expressing rabbit liver CE; assay type: cell-based, human; details: U-373 cells expressing rabbit liver CE, 2 h exposure (FIG. 7)
Method: FIG. 7 is a linegraph showing a comparison of the sensitization, depicted as % survival on the Y-axis, of U-373 glioma cells exposed to APC, depicted as log[APC] at concentrations from 10^−8 to 10^−5 M on the X-axis, from in situ expression of rabbit liver CE (filled squares) and human alveolar macrophage CE (filled circles). Cells were exposed for 2 hours to APC.
as §1

[3] = in humans; cited from earlier work
Rh18 RMS xenografts = details: cited from earlier work
rabbit liver CE [4] = biological target: T1, rabbit liver CE; assay type: in vitro ADME; parameters: To amplify a full length rabbit CE cDNA, oligonucleotide primers RabNTERM; expressed in transfected cells; host or cells: COS-7 (sonicates of transiently transfected cells); details: COS-7 cells, plasmid pCIRAB, enzyme rabbit
[5] = test system: CEs purified from human tissues; details: cited from earlier work
rabbit liver CE [6] = biological target: rabbit liver CE (Oryctolagus cuniculus, UniProt P12337); details: commercially available partially purified rabbit liver CE
Source text: (§2) This screening included enzymes from a series of sera, cell extracts and commercially available CEs using a rapid fluorometric assay.

Rh30 xenografts = assay: Rh30 rhabdomyosarcoma xenografts (no CE) in SCID mice; assay type: in vivo; details: Rh30 xenografts not expressing CE, 2.5 mg CPT-11/kg/day, 5 days/week for 2 weeks, every 21 days, three cycles
Method: (§3) The tumor growth rate is depicted on the Y-axis of each graph in terms of tumor volume and is plotted as a function of time in weeks (X-axis).
(§4) In this preclinical model, expression of the transfected cDNA for rabbit CE was maintained for at least 12 weeks.
(§5) Experiments were performed in this model to compare the responses of mice bearing human Rh30 and Rh30pIRESrabbit xenografts. Rh30 rhabdosarcoma xenografts were transfected with pIRESneo plasmid containing the cDNA for rabbit liver CE and selected with G418. Expression of CE was confirmed by biochemical assay using the CE substrate o-NPA and maintained for at least 12 weeks. Two groups of SCID mice were then injected with the transfected Rh30pIRESrabbit cells subcutaneously into the flanks. A third group of control mice was injected in identical fashion with Rh30 cells not transfected with the plasmid.

[7] = test system: Rh30pIRESrabbit xenografts (expressing rabbit CE); assay: Rh30pIRESrabbit rhabdomyosarcoma xenografts in SCID mice; assay type: in vivo; details: 2.5 mg CPT-11/kg/day, 5 days/week for 2 weeks, every 21 days, three cycles
Method: as §3, §4, §5

human NB-1691 xenografts = assay: NB-1691 xenograft model for MRD; assay type: in vivo, mice; details: 10 mg/kg CPT-11 daily for 5 days on two consecutive weeks
Source text: However, within 4-6 weeks, tumors are palpable in the exact position where the original xenograft was implanted. Since these tumors arise from cells that survived the initial cycle of chemotherapy, this model therefore mimics results seen in patients following surgical resection of the primary tumor and subsequent regrowth at the same site.

human liver CE (hCE1) = biological target: T2, human liver CE (hCE1) (Homo sapiens, UniProt P23141); assay: CPT-11 conversion assay, COS-7 cells expressing hCE1; assay type: in vitro ADME; details: plasmid pCIHUMCAR, enzyme hCE1
T2 construct: expressed in transfected cells; host or cells: COS-7 (sonicates of transiently transfected cells)

[8] = test system: U373 glioblastoma xenografts transfected with control plasmid; assay: U373 glioblastoma xenografts with control plasmid in SCID mice; assay type: in vivo; details: U373 xenografts with control plasmid (no rabbit CE), CPT-11 7.5 mg/kg/day, three cycles
Source text: (§6) The tumor growth rate is depicted on the Y-axis in terms of tumor volume and is plotted as a function of time in weeks (X-axis). Open circles depict the tumor volume of untreated U373 xenografts expressing rabbit CE. Filled triangles depict the response of control xenografts (no rabbit CE) treated with CPT-11. Filled squares depict the response of cells expressing rabbit CE and treated with CPT-11. […] Each point represents the mean of 14 tumors in 7 individual mice.
(§7) Similar studies were performed employing U373 glioblastoma cells transfected with the pIRESneo plasmid or with pIRESneo containing the cDNA for rabbit liver CE and selected with G418. Expression of CE in the tumor cells was confirmed by biochemical assay using the substrate o-NPA. Cells were injected subcutaneously into the flanks of the SCID mice.

Rh30 cells = assay: Growth inhibition of Rh30 cells by CPT-11 pre-incubated with rabbit liver CE; assay type: cell-based, human
Source text: Another aspect of the present invention relates to the ability of compositions comprising a polynucleotide encoding a carboxylesterase and a disease-specific responsive promoter of selected tumor cells to sensitize the tumor cells to a chemotherapeutic prodrug. The ability of a rabbit CE or a human intestinal CE of the present invention to sensitize human tumor cells to CPT-11 was examined. Experiments were first performed to confirm that the metabolite produced by the activity of a CE of the present invention is biologically active in vitro. Rh30 cells were exposed to the products of each reaction for one hour and the percentage of growth inhibition was determined. […] Similar confirmatory experiments were performed with COS-7 cells.
Each reaction mixture was then filter-sterilized and Rh30 cells were exposed to drug for one hour, at which time the medium was replaced with drug-free medium containing serum. […] Cells were allowed to grow for 3 cell doubling times and cell numbers were determined.

[9] = test system: Cos7 cells expressing rabbit liver CE; assay: Cell survival of Cos7 cells transiently transfected with rabbit CE (pCIRABFL); assay type: cell-based, monkey; details: control Cos7 cells versus Cos7 cells transfected with CE
Source text: To confirm that the cDNA encoded CE, the 1.7 kb EcoRI fragment was ligated into pCIneo to generate pCIRABFL and the plasmid transiently transfected into Cos7 cells. pCIneo contains the SV40 origin of replication allowing plasmid amplification in cells expressing the large T antigen, such as Cos7.

[10] = test system: COS-7 cells transfected with the parent plasmid; assay: Growth inhibition, COS-7 cells transfected with parent plasmid; assay type: cell-based, monkey; details: Primates, read-out: IC50 (CPT-11); COS-7 cells transfected with the parent plasmid (pCEneo)
Method: (§8) Growth inhibition assays were performed with COS-7 cells as previously described (Potter et al. 1998 Cancer Res. 52:2646-2651; Danks et al. 1998 Cancer Res. 52:2646-2651,1998). Forty-eight hours after transfection, 5×10^4 cells were plated into 1.5 cm diameter dishes and allowed to attach overnight. […] Cell number was determined by counting using a Coulter Multisyser II (Coulter Electronics, Luton, England) and growth inhibition curves were plotted using Prism software (GraphPad Software Inc., San Diego, Calif.).

[11] = test system: U373 glioblastoma xenografts expressing rabbit liver CE; assay: U373 glioblastoma xenografts expressing rabbit CE in SCID mice; assay type: in vivo; details: CPT-11 7.5 mg/kg/day, three cycles
Source text: as §6, §7

pig liver CE = assay: CPT-11 metabolism by commercially available pig liver CE; details: commercially available partially purified pig liver CE
Source text: as §2

[12] = test system: COS-7 cells expressing hiCE; assay: Growth inhibition, COS-7 cells expressing hiCE; assay type: cell-based, monkey; details: Primates, read-out: IC50 (CPT-11), 2 h exposure, three days growth
Method: as §8

topoisomerase I = topoisomerase I (Homo sapiens, UniProt P11387); details: cited from earlier work
topoisomerase I, sequence (P11387 whole entry): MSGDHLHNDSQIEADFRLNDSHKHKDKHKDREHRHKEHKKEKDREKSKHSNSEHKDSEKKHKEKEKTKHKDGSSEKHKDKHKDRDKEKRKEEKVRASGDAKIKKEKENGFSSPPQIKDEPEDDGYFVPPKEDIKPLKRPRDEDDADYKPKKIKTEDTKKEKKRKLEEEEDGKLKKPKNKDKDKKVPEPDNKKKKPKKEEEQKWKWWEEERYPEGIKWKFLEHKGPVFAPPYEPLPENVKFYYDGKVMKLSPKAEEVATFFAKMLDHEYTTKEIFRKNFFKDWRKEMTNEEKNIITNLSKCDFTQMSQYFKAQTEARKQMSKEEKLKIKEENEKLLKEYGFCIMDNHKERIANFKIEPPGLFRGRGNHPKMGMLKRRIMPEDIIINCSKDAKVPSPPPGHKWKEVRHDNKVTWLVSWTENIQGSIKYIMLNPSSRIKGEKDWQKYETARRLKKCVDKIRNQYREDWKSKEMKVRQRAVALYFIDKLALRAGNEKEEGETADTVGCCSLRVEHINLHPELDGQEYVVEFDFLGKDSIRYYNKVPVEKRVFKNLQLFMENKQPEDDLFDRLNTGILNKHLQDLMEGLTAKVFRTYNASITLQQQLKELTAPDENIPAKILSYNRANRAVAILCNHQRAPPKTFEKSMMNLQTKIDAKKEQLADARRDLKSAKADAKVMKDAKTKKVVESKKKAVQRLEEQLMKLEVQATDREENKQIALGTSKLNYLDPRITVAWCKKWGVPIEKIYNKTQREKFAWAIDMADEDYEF

T2 sequence (P23141 18-567): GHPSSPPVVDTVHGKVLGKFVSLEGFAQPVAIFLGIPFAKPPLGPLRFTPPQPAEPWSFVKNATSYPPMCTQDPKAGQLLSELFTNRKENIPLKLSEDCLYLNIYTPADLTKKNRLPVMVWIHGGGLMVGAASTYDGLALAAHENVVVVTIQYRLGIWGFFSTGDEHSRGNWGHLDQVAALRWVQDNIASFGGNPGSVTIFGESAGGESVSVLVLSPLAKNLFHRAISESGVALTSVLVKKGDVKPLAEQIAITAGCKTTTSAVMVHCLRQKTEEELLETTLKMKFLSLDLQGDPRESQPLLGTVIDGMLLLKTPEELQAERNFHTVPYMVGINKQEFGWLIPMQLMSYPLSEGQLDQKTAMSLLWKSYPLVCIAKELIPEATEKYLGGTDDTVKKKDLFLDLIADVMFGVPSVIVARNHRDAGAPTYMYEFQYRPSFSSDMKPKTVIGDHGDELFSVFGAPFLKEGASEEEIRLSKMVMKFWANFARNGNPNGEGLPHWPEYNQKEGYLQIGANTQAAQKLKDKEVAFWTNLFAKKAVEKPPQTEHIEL

Q: For `CCc1c2c(nc3ccc(OC(=O)N4CCC(NCCCCC(=O)O)CC4)cc13)-c1cc3c(c(=O)n1C2)COC(=O)[C@]3(O)CC` [APC], which “conversion of APC to SN-38” value (rabbit liver CE [1]) is on record?
A: converted to SN-38 in a concentration-dependent manner

Q: And the “sensitization to growth inhibitory effects of APC” value [2]?
A: sensitized to the growth inhibitory effects of APC

Q: And the “conversion to an active metabolite” value [3]?
A: not converted to an active metabolite in humans

Q: With `CCc1c2c(nc3ccc(OC(=O)N4CCC(N5CCCCC5)CC4)cc13)-c1cc3c(c(=O)n1C2)COC(=O)[C@]3(O)CC` [CPT-11, 7-ethyl-10-[4-(1-piperidino)-1-piperidino]carbonyloxycamptothecin] as the molecule, how does the tumor response (Rh18 RMS xenografts; 10 mg/kg/day, same schedule) read?
A: only partial tumor regression

Q: What about the tumor response (Rh18 RMS xenografts; 20 mg of CPT-11/kg/day daily for 5 days for two weeks) of the same molecule?
A: complete regression

Q: What about the “CPT-11 Conversion” value (rabbit liver CE [4]) of the same molecule?
A: 2323.0 pmol/h/mg

Q: And the “prodrug converted to active drug (SN-38)” value [5]?
A: less than 5%

Q: And the “metabolism of CPT-11” value (rabbit liver CE [6])?
A: metabolized CPT-11 efficiently

Q: What about the tumor response (Rh30 xenografts) of the same molecule?
A: regressed only transiently, regrowing within one week after CPT-11 treatment had stopped; also recorded: initial regression but regrowth; also recorded: regressed only transiently with CPT-11 treatment, with regrowth occurring within one week after CPT-11 treatment stopped

Q: And the tumor response [7]?
A: regressed completely and did not regrow during the 12 weeks of the study; also recorded: complete tumor regression, even out to 12 weeks

Q: What about the “time until tumors are palpable again at the original site” value (human NB-1691 xenografts) of the same molecule?
A: 4-6 weeks

Q: And the tumor response (human NB-1691 xenografts)?
A: complete regression of the tumor

Q: And the “CPT-11 Conversion” value (human liver CE (hCE1))?
A: 9.6 pmol/h/mg

Q: What about the tumor response [8] of the same molecule?
A: stable disease with no significant regression; also recorded: stable disease but no significant regression

Q: And the inhibition at 1 µM (Rh30 cells; Homo sapiens, Rh30, 1 h, read-out: inhibition of cell growth)?
A: 30 to 60%

Q: And the “inhibition of cell growth” value (Rh30 cells; Rh30 cells, 1 to 5 units of CE inactivated by heating)?
A: no inhibition of cell growth

Q: What about the “difference in sensitivity to CPT-11 (% cell survival, FIG. 5)” value [9] of the same molecule?
A: approximately 350 fold

Q: And the IC50 [10]?
A: 5400 nM

Q: And the tumor response [11]?
A: regressed completely; also recorded: tumor regression was seen only in treated cells expressing rabbit CE

Q: And the “metabolism of CPT-11” value (pig liver CE)?
A: metabolized CPT-11 efficiently

Q: And the IC50 [12]?
A: 500 nM

Q: For `CCc1c2c(nc3ccc(O)cc13)-c1cc3c(c(=O)n1C2)COC(=O)[C@]3(O)CC` [SN-38, 7-ethyl-10-hydroxy-camptothecin], which “inhibition of topoisomerase I” value (topoisomerase I) is on record?
A: potent inhibitor of topoisomerase I
